This assay addresses T1, BLK (Homo sapiens, UniProt P51451).
T1 construct: purchased Thermo Fisher Scientific (Life Technologies) SelectScreen
Description: SelectScreen Z'LYTE. It counts as biochemical. The procedure, abridged: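 Compound tested in SelectScreen activity assays, Z'LYTE for CSF1R, CDK1/cyclin B and MAP2K6 and Adapta for CAMK1. ATP for CAMK1 was listed as 10, and Km app was used for CSF1R. Results are expressed in percent.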

T1 sequence (P51451 whole entry): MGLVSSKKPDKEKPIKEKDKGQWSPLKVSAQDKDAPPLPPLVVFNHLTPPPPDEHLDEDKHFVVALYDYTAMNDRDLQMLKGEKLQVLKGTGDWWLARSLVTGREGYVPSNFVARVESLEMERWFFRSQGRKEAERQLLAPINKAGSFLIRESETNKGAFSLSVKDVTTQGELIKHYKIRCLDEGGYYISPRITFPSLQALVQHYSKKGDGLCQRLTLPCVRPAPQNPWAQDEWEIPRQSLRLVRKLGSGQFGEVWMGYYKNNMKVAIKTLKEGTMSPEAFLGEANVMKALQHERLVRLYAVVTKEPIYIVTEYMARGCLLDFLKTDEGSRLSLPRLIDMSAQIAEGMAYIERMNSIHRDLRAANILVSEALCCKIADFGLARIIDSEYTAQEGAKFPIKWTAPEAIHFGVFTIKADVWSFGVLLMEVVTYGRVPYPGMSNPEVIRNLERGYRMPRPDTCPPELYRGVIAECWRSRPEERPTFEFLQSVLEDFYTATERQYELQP

`CN(C(=O)CN1CCOCC1)c1ccc2sc3c(-c4cccc5c(=O)cc(N6CC7CCC(C6)O7)oc45)cccc3c2c1` [NU5455]: the inhibition at 1 µM is -8.9%.

The inhibition is the drop in the measured response relative to a control, in per cent.

The values are drawn from publication PMC6934184, “Selective DNA-PKcs inhibition extends the therapeutic index of localized radiotherapy and chemotherapy” (The Journal of Clinical Investigation, 2019).
